Measured values reported in paper PMC3503319 (Biochemistry, 2010).

Target: Mtb DTBS (BioD) (Mycobacterium tuberculosis, UniProt P9WPQ5)
Sequence (P9WPQ5 whole entry): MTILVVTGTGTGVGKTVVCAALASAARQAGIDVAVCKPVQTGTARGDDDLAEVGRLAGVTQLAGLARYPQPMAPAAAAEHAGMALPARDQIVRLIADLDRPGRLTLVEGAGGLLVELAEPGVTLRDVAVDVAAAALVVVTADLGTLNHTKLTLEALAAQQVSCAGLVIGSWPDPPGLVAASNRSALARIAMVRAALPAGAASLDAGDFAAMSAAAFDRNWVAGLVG

C[C@H](N)[C@@H](CCCCCC(=O)O)NC(=O)O [DAPA-carbamate]
X-ray crystal structure, 2.05 Å (crystal soaked in 10 mM DAPA): additional electron density attached to the N7 atom of DAPA that fits the carbon dioxide
